Calls of active or inactive are those of the source. No rule for the calls is given here.

For 4 compounds, mutagenic call results are on record in PubChem BioAssay AID1259407 (Chemical Carcinogenesis Research Information System (CCRIS), 2018).

In this data set the test system is CCRIS mutagenicity, Ames/micronucleus/aberration tests. The data set can be described thus: CCRIS mutagenicity studies.

Regarding `C=CC(=O)OCC(CO)(COC(=O)C=C)COC(=O)C=C`, the mutagenic call was “inactive; negative” (End Point: In vivo micronucleus, Test System: Peripheral blood normochromatic erythrocytes, Species: Mouse, Strain/Sex: B6C3F1/Female); “inactive; negative” (End Point: In vivo micronucleus, Test System: Peripheral blood normochromatic erythrocytes, Species: Mouse, Strain/Sex: B6C3F1/Male, Route: Dermal); “active; positive” (End Point: In vivo micronucleus, Test System: Peripheral blood normochromatic erythrocytes, Species: Mouse, Strain/Sex: FVB.N/TgN (v-Ha-ras) Tg.AC hemizygous/Female, Route: Dermal); “inactive; negative (described as equivocal by ntp)” (End Point: In vivo micronucleus, Test System: Peripheral blood normochromatic erythrocytes, Species: Mouse, Strain/Sex: FVB.N/TgN (v-Ha-ras) Tg.AC hemizygous/Male, Route: Dermal); “inactive; negative” (Test System: AMES SALMONELLA TYPHIMURIUM, Strain/Indicator: TA98, Metabolic Activation: HAMSTER, LIVER, S-9, AROCLOR 1254 (10%), Method: PREINCUBATION); “inactive; negative” (Test System: AMES SALMONELLA TYPHIMURIUM, Strain/Indicator: TA98, Metabolic Activation: NONE, Method: PREINCUBATION). Moreover, the mutagenic call (Test System: AMES SALMONELLA TYPHIMURIUM, Strain/Indicator: TA98, Metabolic Activation: RAT, LIVER, S-9, AROCLOR 1254 (10%), Method: PREINCUBATION) was “inactive; negative”; the mutagenic call (Test System: AMES SALMONELLA TYPHIMURIUM, Strain/Indicator: TA100, Metabolic Activation: HAMSTER, LIVER, S-9, AROCLOR 1254 (10%), Method: PREINCUBATION) was “inactive; negative”; the mutagenic call (Test System: AMES SALMONELLA TYPHIMURIUM, Strain/Indicator: TA100, Metabolic Activation: NONE, Method: PREINCUBATION) is “inactive; negative”; the mutagenic call (Test System: AMES SALMONELLA TYPHIMURIUM, Strain/Indicator: TA100, Metabolic Activation: RAT, LIVER, S-9, AROCLOR 1254 (10%), Method: PREINCUBATION) was “inactive; negative”; the mutagenic call (Test System: AMES SALMONELLA TYPHIMURIUM, Strain/Indicator: TA1535, Metabolic Activation: HAMSTER, LIVER, S-9, AROCLOR 1254 (10%), Method: PREINCUBATION) is “inactive; negative”; the mutagenic call (Test System: AMES SALMONELLA TYPHIMURIUM, Strain/Indicator: TA1535, Metabolic Activation: NONE, Method: PREINCUBATION) is “inactive; negative”. In addition, the mutagenic call is “inactive; negative” (Test System: AMES SALMONELLA TYPHIMURIUM, Strain/Indicator: TA1535, Metabolic Activation: RAT, LIVER, S-9, AROCLOR 1254 (10%), Method: PREINCUBATION); “inactive; negative” (Test System: AMES SALMONELLA TYPHIMURIUM, Strain/Indicator: TA1537, Metabolic Activation: HAMSTER, LIVER, S-9, AROCLOR 1254 (10%), Method: PREINCUBATION); “inactive; negative” (Test System: AMES SALMONELLA TYPHIMURIUM, Strain/Indicator: TA1537, Metabolic Activation: NONE, Method: PREINCUBATION); “inactive; negative” (Test System: AMES SALMONELLA TYPHIMURIUM, Strain/Indicator: TA1537, Metabolic Activation: RAT, LIVER, S-9, AROCLOR 1254 (10%), Method: PREINCUBATION); “active; positive” (Test System: MOUSE LYMPHOMA, Strain/Indicator: L5178Y (TK+/TK-), Metabolic Activation: NONE, Method: SUSPENSION/PLATE).
As for `O=[O+][O-]`, the mutagenic call is “inactive; negative” (Test System: AMES SALMONELLA TYPHIMURIUM, Strain/Indicator: TA98, Metabolic Activation: NONE, Method: VAPOR CHAMBER); “inactive; negative” (Test System: AMES SALMONELLA TYPHIMURIUM, Strain/Indicator: TA98, Metabolic Activation: RAT, LIVER, S-9, AROCLOR 1254, Method: VAPOR CHAMBER); “inactive; negative” (Test System: AMES SALMONELLA TYPHIMURIUM, Strain/Indicator: TA100, Metabolic Activation: NONE, Method: VAPOR CHAMBER); “inactive; negative” (Test System: AMES SALMONELLA TYPHIMURIUM, Strain/Indicator: TA100, Metabolic Activation: RAT, LIVER, S-9, AROCLOR 1254, Method: VAPOR CHAMBER); “active; positive” (Test System: AMES SALMONELLA TYPHIMURIUM, Strain/Indicator: TA102, Metabolic Activation: NONE); “active; positive” (Test System: AMES SALMONELLA TYPHIMURIUM, Strain/Indicator: TA102, Metabolic Activation: NONE, Method: VAPOR CHAMBER). In addition, the mutagenic call was “active; positive” (Test System: AMES SALMONELLA TYPHIMURIUM, Strain/Indicator: TA102, Metabolic Activation: RAT, LIVER, S-9, AROCLOR 1254 (10%)); “active; positive” (Test System: AMES SALMONELLA TYPHIMURIUM, Strain/Indicator: TA102, Metabolic Activation: RAT, LIVER, S-9, AROCLOR 1254, Method: VAPOR CHAMBER); “inactive; negative” (Test System: AMES SALMONELLA TYPHIMURIUM, Strain/Indicator: TA104, Metabolic Activation: NONE, Method: VAPOR CHAMBER); “inactive; negative” (Test System: AMES SALMONELLA TYPHIMURIUM, Strain/Indicator: TA104, Metabolic Activation: RAT, LIVER, S-9, AROCLOR 1254, Method: VAPOR CHAMBER); “inactive; negative” (Test System: AMES SALMONELLA TYPHIMURIUM, Strain/Indicator: TA1535, Metabolic Activation: NONE, Method: VAPOR CHAMBER); “inactive; negative” (Test System: AMES SALMONELLA TYPHIMURIUM, Strain/Indicator: TA1535, Metabolic Activation: RAT, LIVER, S-9, AROCLOR 1254, Method: VAPOR CHAMBER).
`C[C@@H]1C[C@@H]2c3cccc4[nH]cc(c34)C[C@H]2N(C)C1`: the mutagenic call (Test System: AMES SALMONELLA TYPHIMURIUM, Strain/Indicator: TA100, Metabolic Activation: RAT, LIVER, S-9, AROCLOR 1254, Method: STANDARD PLATE) was “active; positive”.
As to `CS(=O)(=O)O`, the mutagenic call was “inactive; negative” (Test System: AMES SALMONELLA TYPHIMURIUM, Strain/Indicator: TA100, Metabolic Activation: NONE, Method: STANDARD PLATE); “inactive; negative” (Test System: AMES SALMONELLA TYPHIMURIUM, Strain/Indicator: TA100, Metabolic Activation: RAT, LIVER, S-9, AROCLOR 1254 (10%), Method: STANDARD PLATE); “inactive; negative” (Test System: AMES SALMONELLA TYPHIMURIUM, Strain/Indicator: TA1535, Metabolic Activation: NONE, Method: STANDARD PLATE); “inactive; negative” (Test System: AMES SALMONELLA TYPHIMURIUM, Strain/Indicator: TA1535, Metabolic Activation: RAT, LIVER, S-9, AROCLOR 1254 (10%), Method: STANDARD PLATE).
